Experiments:
[1] = tested on: glycominimized (GM) E. coli strain; assay: Osmotic stress sensitivity assay, GM strain compared to WT strain; type: cell-based, Escherichia coli K-12 MG1655; settings: minimal medium
Method: Cells were cultured in Greiner Bio-One (Vilvoorde, Belgium) polystyrene F-bottom 96 well plates using the defined medium described above and inoculated 1% from precultures, which were grown in a carbon limiting 2.2 g/L glucose H2O defined medium variant. For the minimum inhibitory concentration (MIC) determination and osmotic stress sensitivity experiments, antibiotics resp. salts were supplemented to the medium in a 100 mL volumetric flask and subsequently filter sterilized using a […] Corning filter system. Each strain was grown in multiple wells of the 96-well plate as biological replicates. These final 96-well culture plates were then incubated at 30° C. on an orbital shaker at 800 rpm for 72h, or longer
The maximal growth rate (Max) was calculated based on the observed optical densities at 600 nm using the R package grofit.
To test the osmotic stress sensitivity of an E. coli strain, a concentration array of KCl, NaCl and sucrose was applied, and growth of the strain recorded. The growth rate was calculated and plotted in function of the concentration of each solute as well as of the osmotic pressure. The osmotic pressure π is calculated as π=i*C*R*T whereby i is the dimensionless Van't Hoff index, C the concentration of the solute (mol/L), R the ideal gas constant and T the temperature (K). For salts that dissociate in water, the Van't Hoff index is the sum of all ions originating from one molecule.
Since the semi-permeable membrane of the GM strain is severely altered compared to that of the WT strain, the osmotic sensitivity of both strains was compared toward KCl, NaCl and sucrose.

[2] = tested on: glycominimized (GM) E. coli strain; assay: Growth rate and MIC in minimal medium with increasing antibiotic concentrations, GM strain compared to WT strain; type: cell-based, Escherichia coli K-12 MG1655
Method: Cells were cultured in Greiner Bio-One (Vilvoorde, Belgium) polystyrene F-bottom 96 well plates using the defined medium described above and inoculated 1% from precultures, which were grown in a carbon limiting 2.2 g/L glucose H2O defined medium variant. For the minimum inhibitory concentration (MIC) determination and osmotic stress sensitivity experiments, antibiotics resp. salts were supplemented to the medium in a 100 mL volumetric flask and subsequently filter sterilized using a 0,22 m Corning filter system. Each strain was grown in multiple wells of the 96-well plate as biological replicates. These final 96-well culture plates were then incubated at 30° C. on an orbital shaker at 800 rpm for 72h, or longer
Cell density of the cultures was frequently monitored by measuring optical density at 600 nm (Implen Nanophotometer NP80, Westburg, Belgium) or with a Spark 1OM microplate reader (Tecan, Switzerland).
The minimum inhibitory concentration (MIC) was determined as the lowest concentration of an antibiotic where the growth rate was less or equal than 10% of the growth rate when no antibiotic was added.
In this experiment, the growth rate was measured for both the wildtype and the GM strain when grown in media containing increasing antibiotic concentrations.

[3] = at 5 g/L concentrations of the salt solutes

[Cl-].[K+] [KCl]
osmotic sensitivity of the GM strain compared to the WT strain (relative specific growth rate, FIG. 2) [1, 3]: equally sensitive

[Cl-].[Na+] [NaCl]
osmotic sensitivity of the GM strain compared to the WT strain (relative specific growth rate, FIG. 2) [1, 3]: equally sensitive

CC[C@H]1OC(=O)[C@H](C)[C@@H](O[C@H]2C[C@@](C)(OC)[C@@H](O)[C@H](C)O2)[C@H](C)[C@@H](O[C@@H]2O[C@H](C)C[C@H](N(C)C)[C@H]2O)[C@](C)(O)C[C@@H](C)C(=O)[C@H](C)[C@@H](O)[C@]1(C)O [erythromycin]
minimum inhibitory concentration (MIC), GM strain vs WT strain ([2]; MIC = lowest concentration where growth rate is less or equal than 10% of growth rate without antibiotic, both strains compared): similar
sensitivity of the GM strain to the antibiotic compared to the WT strain (relative specific growth rate, FIG. 1) ([2]; minimal medium, increasing antibiotic concentrations, GM vs WT strain): similarly sensitive

OC[C@H]1O[C@@](CO)(O[C@H]2O[C@H](CO)[C@@H](O)[C@H](O)[C@H]2O)[C@@H](O)[C@@H]1O [sucrose]
osmotic sensitivity of the GM strain compared to the WT strain (relative specific growth rate, FIG. 2) ([1]; up till 64 g/L sucrose): equally sensitive

Reference: patent US20220403431A1, “GLYCOMINIMIZED BACTERIAL HOST CELLS” (INBIOSE N.V., priority 2020, published 2022)
